Measured values published in ChEMBL document CHEMBL1143588, “Novel and potent 17beta-hydroxysteroid dehydrogenase type 1 inhibitors” (J Med Chem, 2005).

How the values were obtained:
Format in all cases: cell-based
[1] = target: T1, 17-beta-hydroxysteroid dehydrogenase type 1 (Homo sapiens, UniProt P14061); test: Inhibitory activity against 17 beta hydroxysteroid dehydrogenase type 1 in T47D cells
T1 sequence (P14061 whole entry): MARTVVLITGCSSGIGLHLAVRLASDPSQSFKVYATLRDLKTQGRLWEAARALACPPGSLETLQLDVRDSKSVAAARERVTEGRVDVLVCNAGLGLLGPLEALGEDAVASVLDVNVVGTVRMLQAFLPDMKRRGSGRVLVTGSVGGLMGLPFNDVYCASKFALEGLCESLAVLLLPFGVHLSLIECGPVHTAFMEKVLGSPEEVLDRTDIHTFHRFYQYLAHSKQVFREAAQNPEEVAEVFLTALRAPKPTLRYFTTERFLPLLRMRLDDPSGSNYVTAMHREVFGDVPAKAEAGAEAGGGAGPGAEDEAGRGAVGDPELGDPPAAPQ

[2] = target: T2, 17-beta-hydroxysteroid dehydrogenase type 2 (Homo sapiens) (UniProt P37059); test: Inhibitory activity against 17 beta hydroxysteroid dehydrogenase type 2 at 10 uM in MDA-MB-231 cells
T2 sequence (whole entry): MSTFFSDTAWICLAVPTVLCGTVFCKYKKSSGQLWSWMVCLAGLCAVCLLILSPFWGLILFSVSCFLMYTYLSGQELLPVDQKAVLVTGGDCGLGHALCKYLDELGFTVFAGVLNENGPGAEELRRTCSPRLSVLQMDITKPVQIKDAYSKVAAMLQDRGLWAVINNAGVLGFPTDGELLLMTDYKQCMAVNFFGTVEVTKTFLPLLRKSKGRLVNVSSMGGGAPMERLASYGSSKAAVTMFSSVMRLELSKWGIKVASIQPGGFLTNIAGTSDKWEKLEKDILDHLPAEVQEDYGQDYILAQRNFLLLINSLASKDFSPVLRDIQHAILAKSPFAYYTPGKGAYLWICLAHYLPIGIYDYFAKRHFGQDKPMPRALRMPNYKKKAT

[3] = target: T3, 17-beta-hydroxysteroid dehydrogenase type 1 (Homo sapiens) (UniProt P14061); test: Inhibitory activity against 17 beta hydroxysteroid dehydrogenase type 1 at 10 uM in T47D cells
T3 sequence (whole entry): T1 sequence (P14061 whole entry)

SMILES	IC50 [1] [nM]	inhibition [2] [%]	inhibition [3] [%]
COc1cc2c(cc1O)CCC1[C@@H]2CC[C@]2(C)C(=O)C(CC(=O)NCc3cccnc3)C[C@@H]12 (single isomer, unassigned)	290	0	96
C[C@]12CC[C@@H]3c4ccc(O)cc4CCC3[C@@H]1CC(CC(=O)NCc1cccnc1)C2=O (single isomer, unassigned)	37	26	97
CCc1cc2c(cc1O)CCC1[C@@H]2CC[C@]2(C)C(=O)C(CC(=O)NCc3cccnc3)C[C@@H]12 (single isomer, unassigned)	27	-5	99
